{
  "source": "patent US6440680B1",
  "about": "“Methods of identifying modulators of prostaglandin receptor EP1” (Merck Frosst Canada, Inc., priority 1993, dated 2002)",
  "key": {"EP1 receptor [1]": {"target": "T1, EP1 receptor (Homo sapiens, UniProt P34995, A71T/L230H)", "T1 sequence (P34995 1-402 A71T/L230H)": "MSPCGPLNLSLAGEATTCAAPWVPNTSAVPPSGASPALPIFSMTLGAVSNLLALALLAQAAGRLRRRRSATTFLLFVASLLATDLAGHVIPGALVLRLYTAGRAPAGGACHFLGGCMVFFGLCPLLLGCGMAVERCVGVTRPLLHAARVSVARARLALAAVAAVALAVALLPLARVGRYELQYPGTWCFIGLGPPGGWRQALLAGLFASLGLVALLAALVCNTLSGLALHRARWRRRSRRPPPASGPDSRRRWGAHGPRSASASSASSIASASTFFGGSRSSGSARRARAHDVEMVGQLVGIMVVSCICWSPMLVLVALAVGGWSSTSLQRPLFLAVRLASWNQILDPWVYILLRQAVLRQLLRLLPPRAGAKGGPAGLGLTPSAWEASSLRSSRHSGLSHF", "assay": "Aequorin luminescence assay in pcDNA-EP1-injected Xenopus oocytes", "type": "cell-based", "conditions": "for agonist potency from dose-response of aequorin light emission: aequorin-loaded oocytes, FIG. 4E", "protocol": "(§1) FIG. 4A-E—Expression of prostaglandin E2 receptor in Xenopus oocytes. Panel A: An inward Ca^2—dependent Cl^− current (shown as downward deflection) evoked by bath perfusion of 1 μM PGE2. The oocyte was injected with 5 ng of pcDNA-EP1 (Bam) and voltage-clamped at −60 mV. Panel B-D: PGE2-induced light responses in aequorin loaded oocytes. The intensity of aequorin light emission is expressed in relative units and the background emission typically was 0.5-0.7 units units. The PGE2 was injected into the recording cuvette at 10 s at a final concentration indicated on each trace Panel E; Light responses were evoked by different concentrations of PGE2 and PGF2α. Each bar represents the mean±s.e.m. of data from 10 to 15 oocytes from 4 donors. Data are expressed as the percentage of the response observed with 1 μM of PGE2.\nOocytes were taken from adult females of Xenopus laevis using standard surgical procedure (Colman, A., 1984 In: Transcription and Translation—A Practical Approach, IRL Press). To remove follicle cells, oocytes were treated for 2-3 h with freshly made collagenase (2 mg/ml, type 2, Worthington Biochemical Corp., Freehold, N.J.) in Ca^2+-free ND96 solution (ND96 in mM: NaCl 96, KCl 2, MgCl2 1, HEPES 5, Na-pyruvate 2.5, theophylline 0.5, gentamicin […], +1.8 CaCl2, pH 7.6). […] Functional activity was determined by measurement of either agonist-induced Ca^2+-dependent Cl^− current or light emission in oocytes injected with the Ca^2+-specific photoprotein aequorin (J. Blinks, Friday Harbor Photoproteins, Washington), (Giladi and Spindel 1991 Biotechniques, 10, pp 744-747). […] Ligand-containing solution was perfused and the current response was recorded. For the luminometric assay, aequorin-loaded oocytes (100 ng/ooctye) were placed individually in cuvettes containing 0.4 ml ND96 and the light emission provoked by ligand addition was recorded using a Bio-Orbit 1251 luminometer (Fisher Sci. Ltd.).\nFunctional activity was determined in pcDNA-EP1-injected oocytes using electrophysiological and aequorin luminescence assays. […]"}, "EP1 receptor [2]": {"target": "T1, EP1 receptor", "assay": "[3H]PGE2 binding assay with membranes of pcDNA-EP1-transfected COS-M6 cells", "parameters": "expressed in transfected cells; host or cells: COS-M6 cells (membrane fraction)", "conditions": "for rank order of potency for competition for [3H]PGE2 specific binding: FIG. 3A, 0.03 nM-10 μM competitor; for IC50: 0.5 nM [3H]PGE2, FIG. 3B, read-out: IC50 for competition for [3H]PGE2 specific binding", "protocol": "FIGS. 3A-3B—Competition for [^3H]PGE2 binding to pcDNA-EP1-transfected COS-M6 membranes: [^3H]PGE2 binding assays were performed as described in the Methods in the presence of Panel A: 0.03 nM-10 μM PGE2 (Δ), PGE1 (▪), PGF2α (□), PGD2 (●), Panel B: 3 nM-100 μM AH6809 (◯), SC19220 (Δ), and Butaprost (⋄). Butaprost and AH 6809 were generous gifts from Miles Inc. and Glaxo Group Research Ltd.\nThe pcDNA-EP1 plasmid was transfected into COS-M6 Cells using the DEAE-dextran method. The cells were maintained in culture for 72 h, then harvested and membranes prepared by differential centrifugation (1000×g or 10 min, then 100,000×g for 30 min) following lysis of the cells by nitrogen cavitation (Frey, et al., 1993). [3H]Prostaglandin E2 ([^3H]PGE2) binding assays were performed in 10 mM potassium phosphate (pH 6.0), containing 1 mM EDTA, 0.5 nM [^3H]PGE2 (154 Ci/mmol; DuPont-New England Nuclear) and 60-100 μg of protein from the 100,000×g membrane fraction. Incubations were conducted for 1 h at room temperature prior to separation of the bound and free radioligand by rapid filtration as previously described (Frey et al., 1993 Eur. J. Mol. Pharmacol., 244, pp 239-250). Residual [3H]PGE2 bound to the filter was quantitated by liquid scintillation counting. Specific binding was defined as the difference between total binding and non-specific binding, determined in the presence of 1 μM PGE2."}, "thromboxane receptor": {"target": "T2, thromboxane receptor (Homo sapiens, UniProt P21731)", "T2 construct": "use of Vent polymerase (New England Biolabs) enabled amplification of the complete cDNA; expressed in transfected cells; host or cells: human embryonic kidney 293 cells and membranes", "T2 sequence (P21731 1-343)": "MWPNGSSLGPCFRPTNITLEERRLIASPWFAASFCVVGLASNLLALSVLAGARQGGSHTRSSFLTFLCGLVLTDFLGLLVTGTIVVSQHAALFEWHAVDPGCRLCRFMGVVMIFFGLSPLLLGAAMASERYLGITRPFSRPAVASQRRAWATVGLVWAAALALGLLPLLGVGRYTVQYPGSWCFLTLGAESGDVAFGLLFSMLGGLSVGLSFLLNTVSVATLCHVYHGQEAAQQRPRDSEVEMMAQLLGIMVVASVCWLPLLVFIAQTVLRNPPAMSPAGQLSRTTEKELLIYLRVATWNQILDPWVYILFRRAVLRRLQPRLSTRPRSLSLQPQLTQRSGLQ", "assay": "Binding of SQ-29548 in human embryonic kidney 293 cells and membranes transfected with thromboxane-receptor cDNA", "source_text": "The thromboxane receptor has been expressed in Xenopus oocytes. It can couple with endogenous signal transduction components to elicit a calcium-activated Cl^− current recorded by electrophysiological measurement using the procedure described by Hirata, M. et al., (1991), Nature, 349, pp. 617. Binding studies have been performed with COS-1 cell membranes transfected by thromboxane receptor cDNA using the ligand S-145 (Hirata, M. et al., (1991), Nature, 349, pp. 617). […] This level of expression is at least 5-10 times higher than in platelet membranes. On a per-cell basis assuming a 10% transfection efficiency, we estimate ≈10^6 binding sites/tranfected cell as compared to ≈1300 sites present on a platelet (Hourani, S. M. O. et al., (1991), Pharmacol. Rev., 43, pp. 243)."}, "EP1 receptor [3]": {"target": "T1, EP1 receptor", "assay": "Electrophysiological assay (Ca2+-dependent Cl- current) in pcDNA-EP1-injected Xenopus oocytes", "type": "cell-based", "conditions": "bath perfusion of 1 μM PGE2, voltage clamped at -60 mV", "protocol": "as §1\nOocytes were taken from adult females of Xenopus laevis using standard surgical procedure (Colman, A., 1984 In: Transcription and Translation—A Practical Approach, IRL Press). […] Functional activity was determined by measurement of either agonist-induced Ca^2+-dependent Cl^− current or light emission in oocytes injected with the Ca^2+-specific photoprotein aequorin (J. Blinks, Friday Harbor Photoproteins, Washington), (Giladi and Spindel 1991 Biotechniques, 10, pp 744-747). […] Ligand-containing solution was perfused and the current response was recorded. […]"}},
  "data": [
    {"smiles": "CCCCC[C@H](O)/C=C/[C@@H]1[C@@H](C/C=C\\CCCC(=O)O)[C@@H](O)C[C@H]1O", "note": "[PGF2α]", "values": [
      {"measurement": "agonist potency from dose-response of aequorin light emission", "setting": "EP1 receptor [1]", "result": "PGE2 was more potent agonist of the expressed receptor when compared to PGF2α"},
      {"measurement": "rank order of potency for competition for [3H]PGE2 specific binding", "setting": "EP1 receptor [2]", "result": "PGE2>PGE1>PGF2α>>PGD2"}
    ]},
    {"smiles": "O=C(O)CCC/C=C\\C[C@@H]1[C@H](CNNC(=O)Nc2ccccc2)[C@H]2CC[C@@H]1O2", "note": "[SQ-29548]", "values": [
      {"measurement": "binding affinity", "setting": "thromboxane receptor", "result": "high affinity binding"},
      {"measurement": "maximal binding", "setting": "thromboxane receptor", "result": "2-3 pmol/mg protein"}
    ]},
    {"smiles": "CCCCC[C@H](O)/C=C/[C@H]1[C@H](O)CC(=O)[C@@H]1C/C=C\\CCCC(=O)O", "note": "[PGE2]", "values": [
      {"measurement": "agonist potency from dose-response of aequorin light emission", "setting": "EP1 receptor [1]", "result": "more potent agonist of the expressed receptor when compared to PGF2α"},
      {"measurement": "intracellular calcium in pcDNA-EP1 injected oocytes", "setting": "EP1 receptor [1]; oocytes challenged with PGE2", "result": "dose-dependent increase in intracellular calcium"},
      {"measurement": "rank order of potency for competition for [3H]PGE2 specific binding", "setting": "EP1 receptor [2]", "result": "PGE2>PGE1>PGF2α>>PGD2"},
      {"measurement": "Ca2+-dependent Cl- current response", "setting": "EP1 receptor [3]", "result": "prominent current responses"}
    ]},
    {"smiles": "CCCCC[C@H](O)/C=C/[C@H]1C(=O)C[C@H](O)[C@@H]1C/C=C\\CCCC(=O)O", "note": "[PGD2]", "values": [
      {"measurement": "rank order of potency for competition for [3H]PGE2 specific binding", "setting": "EP1 receptor [2]", "result": "PGE2>PGE1>PGF2α>>PGD2"}
    ]},
    {"smiles": "CCCCC[C@H](O)/C=C/[C@H]1[C@H](O)CC(=O)[C@@H]1C/C=C\\CCCC(=O)O", "note": "[[^3H]PGE2, [3H]Prostaglandin E2]", "values": [
      {"measurement": "maximum number of specific binding sites (Bmax)", "setting": "EP1 receptor [2]; Scatchard analysis, pcDNA-EP1 transfected COS-M6 cell membranes", "result": "approximately 360 fmol/mg of protein"},
      {"measurement": "Kd", "setting": "EP1 receptor [2]; Scatchard analysis, pcDNA-EP1 transfected COS-M6 cell membranes, read-out: equilibrium dissociation constant (KD)", "result": 0.001, "unit": "µM"}
    ]},
    {"smiles": "CCCC1([C@H](O)C/C=C/[C@H]2[C@H](O)CC(=O)[C@@H]2CCCCCCC(=O)OC)CCC1", "note": "[butaprost]", "values": [
      {"measurement": "IC50", "setting": "EP1 receptor [2]", "result": 50, "unit": "µM"},
      {"measurement": "activity at the [3H]PGE2 specific binding sites", "setting": "EP1 receptor [2]; FIG. 3B", "result": "relatively inactive"}
    ]},
    {"smiles": "CC(=O)NNC(=O)N1Cc2ccccc2Oc2ccc(Cl)cc21", "note": "[SC 19220]", "values": [
      {"measurement": "IC50", "setting": "EP1 receptor [2]", "result": "~6.7", "unit": "µM"}
    ]},
    {"smiles": "CC(C)Oc1ccc2c(=O)c3cc(C(=O)O)ccc3oc2c1", "note": "[AH 6809]", "values": [
      {"measurement": "IC50", "setting": "EP1 receptor [2]", "result": "~0.5", "unit": "µM"}
    ]},
    {"smiles": "CCCCC[C@H](O)/C=C/[C@H]1[C@H](O)CC(=O)[C@@H]1CCCCCCC(=O)O", "note": "[PGE1]", "values": [
      {"measurement": "rank order of potency for competition for [3H]PGE2 specific binding", "setting": "EP1 receptor [2]", "result": "PGE2>PGE1>PGF2α>>PGD2"}
    ]}
  ]
}
